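Step 1: Grow cells in 96-well plates. Step 2: Expose to compound for 48 hours at 5 concentrations. Step 3: Interpolate endpoints linearly; if unreached, use highest concentration. GI50 marks 50% less growth.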 Calls of active or inactive are those of the source. Rule as the data show it: active = GI50 up to about 1.1 µM and inactive = higher.
Assays:
Assay in all cases: growth of human tumour cells (NCI), 48 h
786-0 = tested on: 786-0
A498 = tested on: A498
A549 = tested on: A549
ACHN = tested on: ACHN
BT-549 = tested on: BT-549
CAKI-1 = tested on: CAKI-1
CCRF-CEM = tested on: CCRF-CEM
COLO 205 = tested on: COLO 205
DU-145 = tested on: DU-145
EKVX = tested on: EKVX
HCC 2998 = tested on: HCC 2998
HCT-116 = tested on: HCT-116
HCT-15 = tested on: HCT-15
HL-60 = tested on: HL-60
HOP-62 = tested on: HOP-62
HT-29 = tested on: HT-29
Hs-578T = tested on: Hs-578T
IGROV-1 = tested on: IGROV-1
K562 = tested on: K562
KM12 = tested on: KM12
LOX IMVI = tested on: LOX IMVI
M14 = tested on: M14
MCF7 = tested on: MCF7
MDA-MB-231 = tested on: MDA-MB-231
MDA-MB-435 = tested on: MDA-MB-435
MDA-N = tested on: MDA-N
MOLT-4 = tested on: MOLT-4
Malme-3M = tested on: Malme-3M
NCI-H226 = tested on: NCI-H226
NCI-H23 = tested on: NCI-H23
NCI-H460 = tested on: NCI-H460
NCI-H522 = tested on: NCI-H522
OVCAR-8 = tested on: OVCAR-8
PC-3 = tested on: PC-3
RPMI-8226 = tested on: RPMI-8226
SF-268 = tested on: SF-268
SF-295 = tested on: SF-295
SF-539 = tested on: SF-539
SK-MEL-28 = tested on: SK-MEL-28
SK-MEL-5 = tested on: SK-MEL-5
SK-OV-3 = tested on: SK-OV-3
SN12C = tested on: SN12C
SNB-19 = tested on: SNB-19
SNB-75 = tested on: SNB-75
SR = tested on: SR
SW-620 = tested on: SW-620
T47D = tested on: T47D
TK-10 = tested on: TK-10
UACC-257 = tested on: UACC-257
UACC-62 = tested on: UACC-62
UO-31 = tested on: UO-31

Measured: GI50

COc1ccc(C2SC(=N)Nc3c2c(C)nn3C(=O)Cc2ccccc2)cc1 (stereo unspecified)
> 100 µM: HCT-15
inactive: 786-0 > 100 µM | A498 > 100 µM | A549 > 100 µM | ACHN > 100 µM | BT-549 > 100 µM | CAKI-1 > 100 µM | CCRF-CEM > 100 µM | COLO 205 > 100 µM | DU-145 > 100 µM | EKVX > 100 µM | HCC 2998 > 100 µM | HCT-116 > 100 µM | HL-60 > 100 µM | HOP-62 > 100 µM | HT-29 > 100 µM | Hs-578T > 100 µM | IGROV-1 > 100 µM | K562 > 100 µM | KM12 > 100 µM | LOX IMVI > 100 µM | M14 > 100 µM | MCF7 > 100 µM | MDA-MB-231 > 100 µM | MDA-MB-435 > 100 µM | MDA-N > 100 µM | MOLT-4 > 100 µM | Malme-3M > 100 µM | NCI-H226 > 100 µM | NCI-H23 > 100 µM | NCI-H460 > 100 µM | NCI-H522 > 100 µM | OVCAR-8 > 100 µM | PC-3 > 100 µM | RPMI-8226 > 100 µM | SF-268 > 100 µM | SF-295 > 100 µM | SF-539 > 100 µM | SK-MEL-28 > 100 µM | SK-MEL-5 > 100 µM | SK-OV-3 > 100 µM | SN12C > 100 µM | SNB-19 > 100 µM | SNB-75 10.9 µM | SR > 100 µM | SW-620 > 100 µM | T47D > 100 µM | TK-10 > 100 µM | UACC-257 > 100 µM | UACC-62 > 100 µM | UO-31 > 100 µM
